{
  "source": "patent US20120095100A1",
  "about": "“USE OF A COMBINATION OF D-ASPARTIC AND L-ASPARTIC ACIDS OR SALTS THEREOF FOR THE TREATMENT OF MALE INFERTILITY” (MERCK SERONO S.P.A., priority 2009, published 2012)",
  "key": {"[1]": {"system": "spermatozoa in rabbit seminal liquid", "assay": "Effect of feed containing D-aspartic/L-aspartic acid on number and motility of spermatozoa in rabbit seminal liquid", "format": "in vivo", "conditions": "rabbits, about 1.14 g/day total in feed, 20 days", "text": "The study has been carried out on two groups of rabbits. […] A same age second group of 10 rabbits representing a control group (or placebo) was fed eat for 20 days with same type food as above prepared, but without the addition of D-aspartic and L-aspartic acids mixture. The experiments have been carried out in a rabbit breeding farm (“Potenza Breeders' Association”, Potenza, Italy). Before the start and at the end of the experiment from each rabbit a sperm sample has been collected by stimulation with an artificial vagina (see paper: “G. Macchia et al., DL-aspartic acid administration improve semen quality in rabbit bucks, published on “Animal Reproduction Science, 118, 337-343, 2010) and the total number of spermatozoa/ml of ejaculate and motility thereof have been determined.\nThe number of the spermatozoa and progressive quick motility are determined according to (World Health Organization) WHO guidelines using a Makler Chamber for the count (Sefi Medtstl Instrument, Haifa, Israel) and in the same place the progressive quick motility has been determined.\nAlso this study has been carried out on two groups of same age and weight rabbits as used for previous study. […] Also in this case seminal liquid has been collected before and after the experiment and then examined for spermatozoon number and motility thereof.\nAlso this study carried out on rabbits has been carried out in the same way as previous ones. […] Also in this case total amount of D-Asp+L-Asp ingested daily by rabbits was about 1.140 g."}, "[2]": {"system": "LH (luteinizing hormone) in human serum", "assay": "LH in human serum after oral D-aspartic/L-aspartic acid", "format": "in vivo", "conditions": "men, L-aspartic acid alone", "text": "(§1) Like ingestion procedure, the D-aspartic and L-aspartic acid mixture preferably was dispersed in a half filled glass containing water or fresh or stored fruit juice (orange, apple, pear, etc.), then stirred and ingested.\n(§2) Before the start of the study and after 20 days of treatment in the morning from each subject blood has been collected and the concentration of LH (luteinizing hormone) and testosterone has been determined in serum obtained from said blood. Moreover, from every subject also the seminal liquid has been collected for which quick progressive motility together with total number spermatozoa/ml of sperm has been determined."}, "[3]": {"system": "testosterone in human serum", "assay": "Testosterone in human serum after oral D-aspartic/L-aspartic acid", "format": "in vivo", "conditions": "men, L-aspartic acid alone", "text": "as §1, §2"}, "[4]": {"system": "spermatozoa in human seminal liquid", "assay": "Number and quick progressive motility of spermatozoa in human seminal liquid after oral D-aspartic/L-aspartic acid", "format": "in vivo", "conditions": "men", "text": "as §1, §2\nThe seminal liquid has been collected by masturbation after 3-5 abstinence days. The number of the spermatozoa and progressive quick motility have been determined according to (World Health Organization) WHO guidelines using a Makler Chamber for the count (Sefi Medtstl Instrument, Haifa, Israel) and in the same place the progressive quick motility has been determined."}, "[5]": {"system": "luteinizing hormone (LH), growth hormone, prolactin (PRL) and testosterone in blood", "conditions": "rat, orally administered; cited from earlier work"}, "[6]": {"system": "LH and testosterone values and spermatozoon number and motility", "conditions": "man, daily one or two 3 g doses, at least 30 days; cited from earlier work"}, "[7]": {"system": "spermatozoa in rabbit seminal liquid", "assay": "Effect of sodium D-aspartate and sodium D-/L-aspartate mixtures on number and motility of spermatozoa in rabbit seminal liquid", "format": "in vivo", "conditions": "rabbits, 0.25 g/day total mixed with food, 20 days", "text": "The study has been carried out on two groups of rabbits (10 rabbits for each group) in order to test the effect of sodium D-aspartate and of the sodium D-aspartate in combination with a determined amount of sodium L-aspartate on the quality of seminal liquid, i.e. on number of spermatozoa/ml and on the progressive quick motility thereof.\nThe experiment involved the ingestion by a group of 10 male adult rabbits, 6 month old, of an amount of sodium D-aspartate corresponding to 0.250 g daily ([…] of body weight) over 20 days. Practically, sodium D-aspartate was mixed with food in such amount that the food daily ingested by the rabbit contained 0.250 g of sodium D-aspartate. In the same way, in a second experiment carried out on another group of 10 same age male adult rabbits, a mixture consisting of 0.2 g of sodium D-aspartate and 0,05 g of sodium L-aspartate (80% D-Asp: 20% L-Asp) was administered. Before the start of the experiment and at the end of drug ingestion lasting 20 days, from every rabbit a sperm sample obtained by stimulation using an artificial vagina has been collected and the total number of spermatozoa/ml of ejaculate and motility thereof have been determined.\nThe number of the spermatozoa and progressive quick motility are determined according to (World Health Organization) WHO guidelines using a Makler Chamber for the count (Sefi Medtstl Instrument, Haifa, Israel) and in the same place the progressive quick motility has been determined. The rabbit semen was 1:10 diluted in an iso-osmotic solution due to excessive concentration.\nThe study involved the administration of a mixture consisting of 0.125 g of sodium D-aspartate+0,125 g of sodium L-aspartate (D-Asp 50%: L-Asp 50%) to a group of 10 rabbits according to procedure of Example 2. […] In this case the production of the number of spermatozoa was increased by 25% and motility by 55% compared to controls showing that also in this case an improvement compared to D-aspartate alone was obtained but it was lower than mixture consisting of 80% D-aspartate and 20% L-aspartate."}, "[8]": {"system": "spermatozoa in human seminal liquid", "assay": "Number and quality of spermatozoa in human seminal liquid after oral sodium D-aspartate or sodium D-/L-aspartate mixtures", "format": "in vivo", "conditions": "men 25-40 years, oral 3.12 g/day total, 30 days", "text": "Seminal liquid has been collected through masturbation after 3-5 abstinence days. The number of the spermatozoa and progressive quick motility thereof have been determined according to (World Health Organization) WHO guidelines using a Makler Chamber for the count (Sefi Medtstl Instrument, Haifa, Israel) and in the same place the progressive quick motility has been determined.\nIt is to be pointed out that this study has been carried out on selected subjects having a number of spermatozoa in seminal liquid from 15.000.000 to 20.000.000/ml, that is minimum threshold values within normal range. […] In this case therefore the action of D-aspartate stimulates their maturation to vital spermatozoa."}, "[9]": {"system": "LH (luteinizing hormone) in human serum", "conditions": "men 25-40 years, 30 days", "source_text": "(§3) The study involves the oral ingestion (after breakfast or main meal) by a group of 10 25-40 year old people of a daily dose consisting of 3.12 g of sodium D-aspartate (19,2 μmole of sodium D-aspartate; 0.27 μmol/kg of body weight for a 70 kg person) over 30 days. Another group of 10 25-40 year old people (after breakfast or main meal) ingested a daily dose of a mixture consisting of 2.49 g of sodium D-aspartate and 0.63 g of sodium L-aspartate (80% sodium D-aspartate and 20% sodium L-aspartate) for the same period.\n(§4) LH and testosterone hormonal assays have been carried out using specific commercial kits for clinical chemical use."}, "[10]": {"system": "testosterone in human serum", "conditions": "men 25-40 years, oral 3.12 g/day total, 30 days", "source_text": "as §3, §4"}},
  "note": "Values joined by “and” are separate entries in the source; they are usually repeats but may differ in a detail not shown here. Equal entries are not always repeated. Where two headings read alike, the source gives them in different places. Marks after values point to notes of the source that are not given here.",
  "data": [
    {"smiles": "N[C@@H](CC(=O)O)C(=O)O", "note": "[L-aspartic acid]", "values": [
      {"measurement": "Immobile after treatment (on base 100)", "setting": "[1]", "result": 29, "unit": "%"},
      {"measurement": "Quick motility after treatment (on base 100)", "setting": "[1]", "result": 41, "unit": "%"},
      {"measurement": "Slow motility after treatment (on base 100)", "setting": "[1]", "result": 30, "unit": "%"},
      {"measurement": "LH haematic hormone before and after therapy", "setting": "[2]", "result": "unaltered"},
      {"measurement": "Testosterone haematic hormone before and after therapy", "setting": "[3]", "result": "unaltered"},
      {"measurement": "Quick progressive motility of spermatozoa after treatment, individual subjects", "setting": "[4]; % progressive quick of 100 observed spermatozoa, one line per subject 1°-10°", "result": "25% and 19% and 35% (2×) and 18% and 40% and 45% and 22% and 27% and 39%"},
      {"measurement": "Average % increment of quick progressive motility", "setting": "[4]; average ± SD of 10 subjects", "result": "+35.6% ± 9.05"},
      {"measurement": "% increment of number of spermatozoa, individual subjects", "setting": "[4]; one line per subject 1°-10°", "result": "26% and 40% and 20% and 33% and 36% and 15% and 13% (2×) and 19% and 12%"},
      {"measurement": "% increment of quick progressive motility, individual subjects", "setting": "[4]; one line per subject 1°-10°", "result": "38% and 26% and 45% and 50% and 25% (2×) and 28% and 37% and 42% and 40%"},
      {"measurement": "Number of spermatozoa in seminal liquid after treatment, individual subjects", "setting": "[4]; one line per subject 1°-10° (20 days for the 80/20 mixture)", "result": "8 × 10^6 and 35 × 10^6 and 6 × 10^6 and 20 × 10^6 and 41 × 10^6 and 3 × 10^6 and 34 × 10^6 and 51 × 10^6 and 25 × 10^6 and 18 × 10^6"}
    ]},
    {"smiles": "N[C@H](CC(=O)O)C(=O)O", "note": "[D-aspartic acid]", "values": [
      {"measurement": "Blood LH, growth hormone, prolactin and testosterone", "setting": "[5]", "result": "temporary increase"},
      {"measurement": "LH and testosterone values and spermatozoon number and motility", "setting": "[6]", "result": "induced an increase"}
    ]},
    {"smiles": "N[C@H](CC(=O)[O-])C(=O)[O-].[Na+].[Na+]", "note": "[100% D-Aspartate, sodium D-aspartate]", "values": [
      {"measurement": "% increment of number of spermatozoa vs before the treatment", "setting": "[7]", "result": 19.3, "unit": "%"},
      {"measurement": "% increment of quick progressive spermatozoa vs before the treatment", "setting": "[7]", "result": 37, "unit": "%"},
      {"measurement": "Immobile spermatozoa after ingestion (on 100 base)", "setting": "[7]", "result": 18, "unit": "%*"},
      {"measurement": "Quick progressive spermatozoa after ingestion (on 100 base)", "setting": "[7]", "result": 55, "unit": "%*"},
      {"measurement": "Slow spermatozoa after ingestion (on 100 base)", "setting": "[7]", "result": 27, "unit": "%*"},
      {"measurement": "% increment of quick progressive spermatozoa vs before the treatment", "setting": "[7]; listed as D-aspartate", "result": 37, "unit": "%"},
      {"measurement": "Quick progressive spermatozoa after ingestion (on 100 base)", "setting": "[7]; listed as D-aspartate", "result": 55, "unit": "%"},
      {"measurement": "% increment of number of spermatozoa vs before the treatment", "setting": "[7]; listed as sodium D-aspartate", "result": "19,3%"},
      {"measurement": "% increment of quick progressive spermatozoa vs before the treatment", "setting": "[7]; listed as sodium D-aspartate", "result": 37, "unit": "%"},
      {"measurement": "Quick progressive spermatozoa after ingestion (on 100 base)", "setting": "[7]; listed as sodium D-aspartate", "result": 55, "unit": "%"},
      {"measurement": "% increase of quick progressive spermatozoa vs before the treatment", "setting": "[8]", "result": "+28%"},
      {"measurement": "% increase of total spermatozoa vs before the treatment", "setting": "[8]", "result": "+27%"},
      {"measurement": "Immobile spermatozoa after ingestion (on base 100)", "setting": "[8]", "result": 30, "unit": "%*"},
      {"measurement": "Quick progressive spermatozoa after ingestion (on base 100)", "setting": "[8]", "result": 45, "unit": "%*"},
      {"measurement": "Slow spermatozoa after ingestion (on base 100)", "setting": "[8]", "result": 25, "unit": "%*"},
      {"measurement": "% increase of quick progressive spermatozoa vs before the treatment", "setting": "[8]; listed as sodium D-aspartate", "result": 28, "unit": "%"},
      {"measurement": "% increase of total spermatozoa vs before the treatment", "setting": "[8]; listed as sodium D-aspartate", "result": 27, "unit": "%"},
      {"measurement": "LH % increment vs before the treatment", "setting": "[9]; oral 3.12 g/day total", "result": "+25.6%"},
      {"measurement": "LH after ingestion", "setting": "[9]; oral 3.12 g/day total, average of 10", "result": 5.4, "unit": "mIU/ml serum"},
      {"measurement": "LH % increment vs before the treatment", "setting": "[9]; oral 3.12 g/day total, listed as sodium D-aspartate", "result": "25,6%"},
      {"measurement": "LH haematic value after ingestion", "setting": "[9]; oral 3.12 g/day", "result": 5.4, "unit": "mUI/ml"},
      {"measurement": "Testosterone % increment vs before the treatment", "setting": "[10]", "result": "+31.2%"},
      {"measurement": "Testosterone after ingestion", "setting": "[10]; average of 10", "result": 6.3, "unit": "ng/ml serum"},
      {"measurement": "Testosterone % increment vs before the treatment", "setting": "[10]; listed as sodium D-aspartate", "result": 31.2, "unit": "%"}
    ]}
  ]
}
